Literature values, collected in article PMC6311893, “Computational prediction of plasma protein binding of cyclic peptides from small molecule experimental data using sparse modeling techniques” (BMC Bioinformatics, 2018).

system: plasma protein; settings: fraction bound to plasma protein; small molecule dataset, sheet 1-SM (Set Dte = test, Dtr = training); ref Ingle et al.; cited from earlier work

Compared with `O=C(O[C@@H]1C[C@@H]2C[C@H]3C[C@H](C1)N2CC3=O)c1c[nH]c2ccccc12` [dolasetron], `NC1CCN(c2c(F)cc3c(=O)c(C(=O)O)cn(C4CC4)c3c2Cl)C1` (stereo not drawn) [Clinafloxacin] is lower in “PPB (fb)” value: 0.7 for the first, 0.04 for the second.

Going from `CC1OC2(CS1)CN1CCC2CC1` (stereo not drawn) [cevimeline] to `CCn1nc(C(=O)O)c(=O)c2cc3c(cc21)OCO3` [cinoxacin], the “PPB (fb)” value rises from 0.15 to 0.64.

same assay, conditions: fraction bound to plasma protein; small molecule dataset, sheet 1-SM, Set Dtr; ref Ingle et al.; cited from earlier work

Going from `CN1[C@@H]2CC[C@H]1C[C@@H](OC(=O)c1c[nH]c3ccccc13)C2` [tropisetron] to `C#C[C@]1(O)C=C[C@H]2[C@@H]3CCC4=CC(=O)CC[C@@H]4[C@H]3CC[C@@]21CC` [Gestodene], the “PPB (fb)” value rises from 0.7 to 0.98.

Compared with `Cc1ccc(S(=O)(=O)NC(=O)NN2CCCCCC2)cc1` [tolazamide], `CO/N=C(\C(=O)N[C@@H]1C(=O)N2C(C(=O)O)=CCS[C@H]12)c1csc(N)n1` [Ceftizoxime] is lower in “PPB (fb)” value: 0.97 for the first, 0.28 for the second.

Compared with `CCN(CCO)CCCC(C)Nc1ccnc2cc(Cl)ccc12` (stereo not drawn) [Hydroxychloroquine], `CC(=O)O[C@H]1C(=O)[C@@]2(C)[C@H]([C@H](OC(=O)c3ccccc3)[C@]3(O)C[C@H](OC(=O)[C@H](O)[C@@H](NC(=O)c4ccccc4)c4ccccc4)C(C)=C1C3(C)C)[C@]1(OC(C)=O)CO[C@@H]1C[C@@H]2O` [Paclitaxel] is higher in “PPB (fb)” value: 0.46 for the first, 0.76 for the second.

For `NC(N)=Nc1nc(CSCCC(N)=NS(N)(=O)=O)cs1` [Famotidine], the “PPB (fb)” value is given as 0.16.

same assay, conditions: fraction bound to plasma protein; small molecule dataset, sheet 1-SM; ref Ingle et al.; cited from earlier work

Compared with `CCn1cc(C(=O)O)c(=O)c2cnc(N3CCNCC3)nc21` [pipemidic acid], `COCCOc1c(OC)cc(Cc2cnc(N)nc2N)cc1OC` [tetroxoprim] is lower in “PPB (fb)” value: 0.3 for the first, 0.15 for the second.

Compared with `CNCC[C@H](Oc1cccc2ccccc12)c1cccs1` [Duloxetine], `CC(CN(C)C)CN1c2ccccc2CCc2ccccc21` (stereo not drawn) [Trimipramine] is higher in “PPB (fb)” value: 0.9 for the first, 0.95 for the second.

Compared with `Cc1ccc(S(=O)(=O)NC(=O)N[C@H]2[C@H]3CC[C@@](C)([C@H]2O)C3(C)C)cc1` [glibornuride], `CC1(C)SC2C(NC(=O)c3ccccc3-c3ccccc3)C(=O)N2C1C(=O)O` (stereo not drawn) [penicillin16] is lower in “PPB (fb)” value: 0.95 for the first, 0.91 for the second.

First: NC(=O)N1c2ccccc2CC(=O)c2ccccc21 [oxcarbazepine]
Second: CCCCC(=O)N(Cc1ccc(-c2ccccc2-c2nnn[nH]2)cc1)[C@H](C(=O)O)C(C)C [Valsartan]
The “PPB (fb)” value of the first is lower: 0.45 for the first, 0.95 for the second.

Compared with `O=C(C1CCCCC1)N1CC(=O)N2CCc3ccccc3C2C1` (stereo not drawn) [praziquantel], `C#C[C@]1(O)CC[C@H]2[C@@H]3CCC4=CC(=NO)CC[C@@H]4[C@H]3CC[C@@]21CC` (mixture of isomers) [norelgestromin] is higher in “PPB (fb)” value: 0.83 for the first, 0.97 for the second.

First: CO[C@@H]1[C@@H](OC(N)=O)[C@@H](O)[C@H](Oc2ccc3c(O)c(NC(=O)c4ccc(O)c(CC=C(C)C)c4)c(=O)oc3c2C)OC1(C)C [Novobiocin]
Second: COC(C(=O)NC1C(=O)N2C1SC(C)(C)C2C(=O)O)c1ccc(Cl)c(Cl)c1 (stereo not drawn) [penicillin56]
The “PPB (fb)” value of the first is lower: 0.9 for the first, 0.95 for the second.

same assay, conditions: plasma; cited from earlier work

Compared with `C[C@H]1O[C@@H](O[C@H]2CC[C@@]3(C)[C@H](CC[C@@H]4[C@@H]3C[C@@H](O)[C@]3(C)[C@@H](C5=CC(=O)OC5)CC[C@]43O)C2)C[C@H](O)[C@@H]1O[C@H]1C[C@H](O)[C@H](O[C@H]2C[C@H](O)[C@H](O[C@@H]3O[C@H](CO)[C@@H](O)[C@H](O)[C@H]3O)[C@@H](C)O2)[C@@H](C)O1` [deslanoside], cefotiam is higher in “PPB (fb)” value: 0.2 for the first, 0.4 for the second.

Going from `CC(C)c1cccc(C(C)C)c1O` [Propofol] to `Cc1cc(=O)n(-c2ccccc2)n1C` [Antipyrine], the “PPB (fb)” value falls from 0.98 to 0.07.

Going from `CN1C(=O)C(O)N=C(c2ccccc2Cl)c2cc(Cl)ccc21` (stereo not drawn) [Lormetazepam] to `CCC(C)C1OC2(CCC1C)CC1CC(C/C=C(\C)C(OC3CC(OC)C(OC4CC(OC)C(O)C(C)O4)C(C)O3)C(C)/C=C/C=C3\COC4C(O)C(C)=CC(C(=O)O1)C34O)O2` (stereo not drawn) [ivermectin], the “PPB (fb)” value rises from 0.86 to 0.93.

In the case of `O=C(O)c1cc(O)c(O)c(O)c1` [gallic acid], the “PPB (fb)” value is listed as 0.32.
